How the values were obtained:
[1] = Colorant stabilization effect (photostabilizer, sunlight exposure); design: key to Sunlight exposure (80 MJ) Appearance: A: No change; B: No almost change; C: Yes change; key to Sunlight exposure (80 MJ) ΔE: ΔE color difference (Lab) vs. color before sunlight exposure; details: photostabilizer 0.05 wt %
Protocol: First of all, the photostabilization effect and appearance change of a composition in each pigment were studied by the following evaluation formulation.
Each test sample was prepared. Observation of appearance change (visual evaluation) and measurement of color difference (ΔE) were carried out in samples exposed to sunlight exposure (around 80 MJ).
Color difference was measured by Lab coordinate system with spectrophotometer. Color difference was calculated on the basis of the color before sunlight exposure. Namely, from measured value (L1,a1,b1) before sunlight exposure, color difference (ΔE) was calculated by following formula.

[2] = Perfume stabilization effect (photostabilizer, sunlight exposure, judgement by perfumier); design: key to Sunlight exposure (80 MJ) Smell evaluation / Sunlight exposure (80 MJ) evaluation: A: No change; B: No almost change; C: Yes change
Protocol: Next, the photostabilization effect for each perfume was studied by the following evaluation formulation.
Each test sample was prepared. Change of smell of sample exposed to sunlight (80 MJ) was observed (judgement by perfumier).

[3] = Drug stabilization effect (photostabilizer, sunlight exposure); design: key to Sunlight exposure (80 MJ) Appearance: A: No change; B: No almost change; C: Yes change; details: photostabilizer 0.05, amounts wt %
Protocol: Next, the photo stabilization effect and changes in appearance in drug compositions were studied according to the following evaluation formulation.
Each test sample was prepared. Appearance changes of the samples exposed to sunlight (80 MJ) was observed (visual evaluation). Also, residual yield was measured by liquid chromatography.

[4] = Red No. 106 0.00001 wt % + Yellow No. 5 0.0001 wt %
[5] = Red No. 106 0.00001 wt % + Yellow No. 203 0.0001 wt %
[6] = Red No. 213 0.00001 wt % + Blue No. 1 0.00001 wt %
[7] = Red No. 227 0.0001 wt % + Yellow No. 5 0.0001 wt %
[8] = Red No. 227 0.0001 wt % + Yellow No. 203 0.0001 wt %
[9] = Red No. 401 0.0001 wt % + Blue No. 1 0.00001 wt %
[10] = Red No. 401 0.0001 wt % + Green No. 3 0.00001 wt %
[11] = Yellow No. 203 0.0001 wt % + Yellow No. 5 0.0001 wt %
[12] = Base perfume Fruity 0.03 wt %, photostabilizer 0.1 wt %
[13] = Base perfume Muguet 0.03 wt %, photostabilizer 0.05 wt %
[14] = Base perfume Rose 0.03 wt %, photostabilizer 0.05 wt %
[15] = Base perfume Spicy 0.03 wt %, photostabilizer 0.2 wt %
[16] = Base perfume Woody 0.03 wt %, photostabilizer 0.1 wt %
[17] = Natural perfume Jasmine oil 0.03 wt %, photostabilizer 0.05 wt %
[18] = Natural perfume Lavender oil 0.03 wt %, photostabilizer 0.1 wt %
[19] = Natural perfume Neroli oil 0.03 wt %, photostabilizer 0.1 wt %
[20] = Natural perfume Rose oil 0.03 wt %, photostabilizer 0.05 wt %
[21] = Natural perfume Ylang ylang oil 0.03 wt %, photostabilizer 0.2 wt %
[22] = Synthetic perfume Citral 0.03 wt %, photostabilizer 0.1 wt %
[23] = Synthetic perfume Limonene 0.03 wt %, photostabilizer 0.05 wt %
[24] = Synthetic perfume Linalool 0.03 wt %, photostabilizer 0.05 wt %
[25] = Synthetic perfume Linalyl acetate 0.03 wt %, photostabilizer 0.1 wt %
[26] = Synthetic perfume Rose oxide 0.03 wt %, photostabilizer 0.2 wt %
[27] = drug 2-o-α-α-glucopyranosyl-L-ascorbic acid 2.0
[28] = drug Dibutylhydroxytoluene 0.01
[29] = drug Dipotassium glycyrrhizinate 0.05
[30] = drug L-ascorbic acid 2-(dl-α-tocopheryl hydrogen phosphate) potassium salt 0.01

## COc1ccc(C(=O)CC(=O)c2ccc(C(C)(C)C)cc2)cc1 [4-tert-Butyl-4′-methoxy-di-benzoylmethane, reference compound]
[1]; Blue No. 1 0.0001 wt %
  Sunlight exposure (80 MJ) Appearance: B
  Sunlight exposure (80 MJ) ΔE: 1.49
[1]; Green No. 3 0.0001 wt %
  Sunlight exposure (80 MJ) Appearance: B
  Sunlight exposure (80 MJ) ΔE: 0.62
[1]; [4]
  Sunlight exposure (80 MJ) Appearance: B
  Sunlight exposure (80 MJ) ΔE: 0.92
[1]; [5]
  Sunlight exposure (80 MJ) Appearance: B
  Sunlight exposure (80 MJ) ΔE: 1.02
[1]; Red No. 106 0.0001 wt %
  Sunlight exposure (80 MJ) Appearance: B
  Sunlight exposure (80 MJ) ΔE: 1.02
[1]; [6]
  Sunlight exposure (80 MJ) Appearance: B
  Sunlight exposure (80 MJ) ΔE: 1.17
[1]; Red No. 213 0.0001 wt %
  Sunlight exposure (80 MJ) Appearance: B
  Sunlight exposure (80 MJ) ΔE: 1.02
[1]; [7]
  Sunlight exposure (80 MJ) Appearance: B
  Sunlight exposure (80 MJ) ΔE: 0.80
[1]; [8]
  Sunlight exposure (80 MJ) Appearance: B
  Sunlight exposure (80 MJ) ΔE: 1.12
[1]; Red No. 227 0.0001 wt %
  Sunlight exposure (80 MJ) Appearance: B
  Sunlight exposure (80 MJ) ΔE: 0.95
[1]; [9]
  Sunlight exposure (80 MJ) Appearance: B
  Sunlight exposure (80 MJ) ΔE: 0.93
[1]; [10]
  Sunlight exposure (80 MJ) Appearance: B
  Sunlight exposure (80 MJ) ΔE: 0.99
[1]; Red No. 401 0.001 wt %
  Sunlight exposure (80 MJ) Appearance: B
  Sunlight exposure (80 MJ) ΔE: 1.02
[1]; Yellow No. 5 0.001 wt %
  Sunlight exposure (80 MJ) Appearance: B
  Sunlight exposure (80 MJ) ΔE: 0.88
[1]; [11]
  Sunlight exposure (80 MJ) Appearance: A
  Sunlight exposure (80 MJ) ΔE: 0.48
[1]; Yellow No. 203 0.001 wt %
  Sunlight exposure (80 MJ) Appearance: B
  Sunlight exposure (80 MJ) ΔE: 0.68
[2]; [12]
  Sunlight exposure (80 MJ) Smell evaluation: B
[2]; [13]
  Sunlight exposure (80 MJ) Smell evaluation: B
[2]; [14]
  Sunlight exposure (80 MJ) Smell evaluation: B
[2]; [15]
  Sunlight exposure (80 MJ) Smell evaluation: B
[2]; [16]
  Sunlight exposure (80 MJ) Smell evaluation: B
[2]; [17]
  Sunlight exposure (80 MJ) Smell evaluation: B
[2]; [18]
  Sunlight exposure (80 MJ) Smell evaluation: B
[2]; [19]
  Sunlight exposure (80 MJ) Smell evaluation: B
[2]; [20]
  Sunlight exposure (80 MJ) Smell evaluation: B
[2]; [21]
  Sunlight exposure (80 MJ) Smell evaluation: B
[2]; [22]
  Sunlight exposure (80 MJ) Smell evaluation: B
[2]; [23]
  Sunlight exposure (80 MJ) Smell evaluation: B
[2]; [24]
  Sunlight exposure (80 MJ) Smell evaluation: B
[2]; [25]
  Sunlight exposure (80 MJ) Smell evaluation: B
[2]; [26]
  Sunlight exposure (80 MJ) Smell evaluation: B
[3]; [27]
  Sunlight exposure (80 MJ) Appearance: B
  Sunlight exposure (80 MJ) Residual yield [%]: 97.0%
[3]; [28]
  Sunlight exposure (80 MJ) Appearance: B
  Sunlight exposure (80 MJ) Residual yield [%]: 95.2%
[3]; [29]
  Sunlight exposure (80 MJ) Appearance: B
  Sunlight exposure (80 MJ) Residual yield [%]: 96.6%
[3]; [30]
  Sunlight exposure (80 MJ) Appearance: B
  Sunlight exposure (80 MJ) Residual yield [%]: 94.5%
[3]; drug Salicylic acid 0.1
  Sunlight exposure (80 MJ) Appearance: B
  Sunlight exposure (80 MJ) Residual yield [%]: 97.2%

## CCCCCCCCOC(=O)C=Cc1ccc(OC)cc1 [Octyl p-methoxycinnamate, reference compound]
[1]; Blue No. 1 0.0001 wt %
  Sunlight exposure (80 MJ) Appearance: C
  Sunlight exposure (80 MJ) ΔE: 5.23
[1]; Green No. 3 0.0001 wt %
  Sunlight exposure (80 MJ) Appearance: C
  Sunlight exposure (80 MJ) ΔE: 1.64
[1]; Red No. 106 0.0001 wt %
  Sunlight exposure (80 MJ) Appearance: C
  Sunlight exposure (80 MJ) ΔE: 1.95
[1]; Red No. 213 0.0001 wt %
  Sunlight exposure (80 MJ) Appearance: C
  Sunlight exposure (80 MJ) ΔE: 2.55
[1]; Red No. 227 0.0001 wt %
  Sunlight exposure (80 MJ) Appearance: C
  Sunlight exposure (80 MJ) ΔE: 1.22
[1]; Red No. 401 0.001 wt %
  Sunlight exposure (80 MJ) Appearance: C
  Sunlight exposure (80 MJ) ΔE: 4.76
[1]; Yellow No. 5 0.001 wt %
  Sunlight exposure (80 MJ) Appearance: C
  Sunlight exposure (80 MJ) ΔE: 1.56
[1]; Yellow No. 203 0.001 wt %
  Sunlight exposure (80 MJ) Appearance: C
  Sunlight exposure (80 MJ) ΔE: 2.43
[2]; [12]
  Sunlight exposure (80 MJ) Smell evaluation: C
[2]; [13]
  Sunlight exposure (80 MJ) Smell evaluation: C
[2]; [14]
  Sunlight exposure (80 MJ) Smell evaluation: C
[2]; [15]
  Sunlight exposure (80 MJ) Smell evaluation: C
[2]; [16]
  Sunlight exposure (80 MJ) Smell evaluation: C
[2]; [17]
  Sunlight exposure (80 MJ) Smell evaluation: C
[2]; [18]
  Sunlight exposure (80 MJ) Smell evaluation: C
[2]; [19]
  Sunlight exposure (80 MJ) Smell evaluation: C
[2]; [20]
  Sunlight exposure (80 MJ) Smell evaluation: C
[2]; [21]
  Sunlight exposure (80 MJ) Smell evaluation: C
[2]; [22]
  Sunlight exposure (80 MJ) Smell evaluation: C
[2]; [23]
  Sunlight exposure (80 MJ) Smell evaluation: C
[2]; [24]
  Sunlight exposure (80 MJ) Smell evaluation: C
[2]; [25]
  Sunlight exposure (80 MJ) Smell evaluation: C
[2]; [26]
  Sunlight exposure (80 MJ) Smell evaluation: C
[3]; [27]
  Sunlight exposure (80 MJ) Appearance: C
  Sunlight exposure (80 MJ) Residual yield [%]: 92.3%
[3]; [28]
  Sunlight exposure (80 MJ) Appearance: C
  Sunlight exposure (80 MJ) Residual yield [%]: 71.7%
[3]; [29]
  Sunlight exposure (80 MJ) Appearance: C
  Sunlight exposure (80 MJ) Residual yield [%]: 90.8%
[3]; [30]
  Sunlight exposure (80 MJ) Appearance: C
  Sunlight exposure (80 MJ) Residual yield [%]: 82.1%
[3]; drug Salicylic acid 0.1
  Sunlight exposure (80 MJ) Appearance: C
  Sunlight exposure (80 MJ) Residual yield [%]: 92.2%
